Test results as given in patent US20230028441A1, “NOVEL HETEROARYL-TRIAZOLE COMPOUNDS AS PESTICIDES” (Bayer Aktiengesellschaft, priority 2019, published 2023).

Columns and labels:
Format in all cases: in vivo
[1] = system: fall armyworm larvae (Spodoptera frugiperda); experiment: Spodoptera frugiperda spray test (maize leaf sections); conditions: 168 h
In short: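 Percent kill of Spodoptera frugiperda larvae was recorded 7 days after infesting dried, treated maize leaf sections. Spray solutions were made from an acetone/DMF compound preparation diluted with 1000 ppm emulsifier-containing water.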

[2] = system: cattle tick larvae (Rhipicephalus microplus), strain Parkhurst, resistant against synthetic pyrethroids; experiment: Rhipicephalus (Boophilus) microplus in-vitro contact test, larval cattle tick; conditions: 5 μg/cm^2 (=500 g/ha), after 48 hours, read-out: efficacy (larvae dead or moribund)
In short: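 Efficacy, 100% meaning all larvae dead or moribund, was judged at 48 h from loss of negative geotactic climbing. Larvae of the Parkhurst strain, 20–50 per tube, were exposed at 27° C and 85% humidity to acetone-coated tube surfaces; 900 ppm corresponded to 5 μg/cm^2.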

[3] = system: adult unfed cat fleas (Ctenocephalides felis); experiment: Ctenocephalides felis oral test; conditions: 48 h, 100 ppm in cattle blood, after 2 days
In short: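 Percent flea mortality recorded at 2 days. Compound was dissolved in dimethyl sulfoxide and diluted into cattle blood, which ~20 unfed adult cat fleas ingested through parafilm from a 37°C-heated chamber, their own chamber kept at room temperature.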

[4] = system: green peach aphid (Myzus persicae); experiment: Myzus persicae spray test; conditions: foliar, 120 h, 100 g/ha, after 5 days, Chinese cabbage leaf disks
In short: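 Chinese cabbage leaf disks carrying all instars of Myzus persicae were sprayed with compound. The formulation was acetone/dimethylformamide diluted in water with 1000 ppm alkylarylpolyglycol ether emulsifier. Percent mortality was scored after 5 days, with 100% meaning all aphids killed.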

[5] = system: larvae of the southern green stink bug (Nezara viridula); experiment: Nezara viridula spray test; conditions: in Hordeum vulgare, 96 h
In short: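 Percent mortality of southern green stink bug larvae read 4 days after spraying infested Hordeum vulgare. Test solutions: compound in acetone plus dimethylformamide, diluted with emulsifier-containing water (1000 ppm alkylarylpolyglycol ether).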

[6] = system: adult cat fleas (Ctenocephalides felis); experiment: Ctenocephalides felis in-vitro contact test, adult cat flea; conditions: 5 μg/cm^2 (=500 g/ha), after 48 hours, read-out: efficacy (fleas dead or moribund)
In short: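 Efficacy (%) counts fleas that are dead or moribund, meaning unable to escape heat (45-50 °C, ≤5 min) by climbing. Scoring was done 48 h after 5-10 adults were placed at room temperature in glass tubes. The tubes carried a dried acetone film of compound, 5 μg/cm^2 at 900 ppm.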

[7] = system: southern root-knot nematode (Meloidogyne incognita); experiment: Meloidogyne incognita test; conditions: 336 h, after 14 days, read-out: nematicidal activity (gall formation)
Protocol: Solvent: 125.0 parts by weight of acetone
To produce a suitable preparation of active compound, 1 part by weight of active compound is mixed with the stated amount of solvent, and the concentrate is diluted with water to the desired concentration.
Vessels are filled with sand, a solution of the active ingredient, a suspension containing eggs and larvae of the southern root-knot nematode (Meloidogyne incognita) and salad seeds. The salad seeds germinate and the seedlings grow. Galls develop in the roots.
After 14 days the nematicidal activity is determined on the basis of the percentage of gall formation. 100% means no galls were found and 0% means the number of galls found on the roots of the treated plants was equal to that in untreated control plants.

[8] = system: green peach aphid (Myzus persicae); experiment: Myzus persicae oral test; conditions: 120 h
In short: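 Five-day oral feeding assay measuring percent mortality of a mixed aphid population that draws compound-containing sugared IPL41 medium through sealing parafilm; the test preparation derives from 1 part compound per 100 parts acetone, diluted with water.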

[9] = system: adult engorged female ticks (Rhipicephalus microplus); experiment: Rhipicephalus (Boophilus) microplus injection test; conditions: 168 h, egg deposition after 7 days, read-out: efficacy (infertile eggs); for pest or weed control at 0.004 mg: 4 μg/animal; for pest or weed control at 0.02 mg: 20 μg/animal
In short: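 Efficacy is the share of infertile eggs: 100% means none are fertile, 0% means all are fertile. Egg deposition was checked 7 days after injecting 1 μL of DMSO-diluted compound into the abdomen of five engorged female R. microplus, with doubtful eggs kept about 42 days to hatching. The stock was 10 mg in 0.5 mL DMSO.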

[10] = system: larvae of the banded cucumber beetle (Diabrotica balteata); experiment: Diabrotica balteata spray test; conditions: 168 h, after 7 days, wheat seeds, read-out: efficacy (seedlings grown up); for pest or weed control at 160 µg/disc, 500 g/ha: 500 g/ha (=160 μg/well); for pest or weed control at 32 µg/disc, 100 g/ha: 100 g/ha (=32 μg/well)
In short: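 Efficacy (%) read at day 7: 100% means seedlings grew like untreated, uninfested controls; 0% means no seedlings grew. Wheat seeds germinated 1 day on agar, sprayed with emulsified compound solution (1000 ppm emulsifier in water), then each well infested with 10-20 larvae.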

[11] = system: brown planthopper (Nilaparvata lugens); experiment: Nilaparvata lugens spray test; conditions: in Oryza sativa, 96 h
In short: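 Rice plants (Oryza sativa) sprayed with compound in acetone/DMF diluted in water containing 1000 ppm alkylarylpolyglycol ether emulsifier, then infested with planthoppers. Mortality % scored after 4 days (100% = all killed, 0% = none killed).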

[12] = system: adult brown dog ticks (Rhipicephalus sanguineus); experiment: Rhipicephalus sanguineus in-vitro contact test with adult brown dog ticks; conditions: after 48 hours, read-out: efficacy (ticks dead or moribund); for pest or weed control at 1 µg/cm2, 100 g/ha: 1 μg/cm^2 (=100 g/ha); for pest or weed control at 5 µg/cm2, 500 g/ha: 5 μg/cm^2 (=500 g/ha)
In short: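 Efficacy is the percentage of adult ticks dead or moribund, meaning immotile or uncoordinated and unable to escape 45-50° C. heat within 5 min. Read 48 h after 5-10 ticks were enclosed at room temperature in acetone-coated glass tubes. Dose 5 μg/cm^2, from a 900 ppm coating solution.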

[13] = system: caterpillars of the fall army worm (Spodoptera frugiperda); experiment: Spodoptera frugiperda spray test (cotton leaves); conditions: 168 h
Protocol: Solvent: 14 parts by weight of dimethylformamide
Emulsifier: alkylaryl polyglycol ether
To produce a suitable preparation of active compound, 1 part by weight of active compound is mixed with the stated amount of solvent and is diluted with water, containing an emulsifier concentration of 1000 ppm, to the desired concentration. Further test concentrations are prepared by dilution with emulsifier containing water. Ammonium salt and/or penetration enhancer in a dosage of 1000 ppm are added to the desired concentration if necessary.
Cotton leaves (Gossypium hirsutum) are treated by being sprayed with the preparation of the active compound of the desired concentration and are infested with caterpillars of the fall army worm (Spodoptera frugiperda).
After 7 days mortality in % is determined. 100% means all the caterpillars have been killed and 0% means none of the caterpillars have been killed.

| Compound | mortality at 100 g/ha [1] [%] | pest or weed control at 5 µg/cm2 [2] [%] | mortality at 100 ppm [3] [%] | mortality at 100 g/ha [4] [%] | mortality at 100 g/ha [5] [%] | pest or weed control at 5 µg/cm2 [6] [%] | pest or weed control at 20 ppm [7] [%] | mortality at 4 ppm [8] [%] | pest or weed control at 0.004 mg [9] [%] | pest or weed control at 0.02 mg [9] [%] | mortality at 500 g/ha [1] [%] | pest or weed control at 160 µg/disc, 500 g/ha [10] [%] | mortality at 500 g/ha [5] [%] | mortality at 100 g/ha [11] [%] | pest or weed control at 32 µg/disc, 100 g/ha [10] [%] | mortality at 500 g/ha [11] [%] | pest or weed control at 1 µg/cm2, 100 g/ha [12] [%] | pest or weed control at 5 µg/cm2, 500 g/ha [12] [%] | mortality at 20 ppm [13] [%] |
| --- | --- | --- | --- | --- | --- | --- | --- | --- | --- | --- | --- | --- | --- | --- | --- | --- | --- | --- | --- |
| CC(NC(=O)c1cc(Cl)cc(C(F)(F)F)c1)c1nc(C(=O)NC2CC2)nn1-c1ncccn1 (single isomer, unassigned) [I-076, 5-[1-[[3-chloro-5-(trifluoromethyl)benzoyl]amino]ethyl]-N-cyclopropyl-1-pyrimidin-2-yl-1,2,4-triazole-3-carboxamide] | 100 | 90 | 100 | 90 | 100 | 100 | 90 | 100 | 100 | 100 |  |  |  |  |  |  |  |  |  |
| CC(NC(=O)c1cc(Cl)cc(OC(F)(F)F)c1)c1nc(-c2ncccn2)nn1-c1ncccn1 (stereo not drawn) [I-051] |  |  | 100 |  | 100 |  | 100 | 100 | 100 | 100 | 100 | 100 | 100 |  |  |  |  |  |  |
| CC(NC(=O)c1cc(Cl)cc(Cl)c1)c1nc(-c2ncccn2)nn1-c1ncccn1 (stereo not drawn) [I-054] |  |  | 100 |  |  |  | 90 | 90 |  | 100 |  |  |  |  |  |  |  |  |  |
| CC(NC(=O)c1cc(Cl)cc(C(F)(F)F)c1)c1nc(-c2ncccn2)nn1-c1ncccn1 (stereo not drawn) [I-055] |  |  | 100 |  | 100 |  | 90 |  |  | 100 |  | 100 | 100 |  |  |  |  |  |  |
| CC(NC(=O)c1cc(Cl)cc(S(C)(=O)=O)c1)c1nc([S+]([O-])CC(F)(F)F)nn1-c1ccc(Cl)cn1 (stereo not drawn) [I-066] |  |  | 100 |  |  |  | 90 |  | 100 | 100 |  |  |  |  |  |  |  |  |  |
| CNC(=O)c1nc(C(C)NC(=O)c2cc(Cl)cc(C(F)(F)F)c2)n(-c2ncccn2)n1 (stereo not drawn) [I-077] |  |  | 100 | 90 | 100 | 90 | 90 | 100 | 100 | 100 |  |  |  | 90 |  |  |  |  |  |
| CC(NC(=O)c1cc(Cl)cc(C(F)(F)F)c1)c1nc(C(=O)NC2CC2)nn1-c1ccc(C#N)cn1 (stereo not drawn) [I-078] | 100 | 90 | 100 |  |  |  | 90 | 90 | 100 | 100 |  |  |  |  | 100 |  |  |  |  |
| C=CC(=O)Nc1nc(C(C)NC(=O)c2cc(Cl)cc(C(F)(F)F)c2)n(-c2ccc(Cl)cn2)n1 (stereo not drawn) [I-123] | 100 | 90 |  |  |  | 100 | 90 |  |  |  |  |  | 100 |  | 100 |  |  |  |  |
| CNc1nc([C@H](C)NC(=O)c2cc(Br)cc(OC(F)(F)F)c2)n(-c2ncccn2)n1 [I-130] | 100 | 100 |  | 100 |  | 100 | 90 |  |  |  |  |  | 100 |  | 100 | 90 | 100 | 100 | 100 |
| CNc1nc([C@H](C)NC(=O)c2cc(OC(F)(F)F)cc(C3CC3)c2)n(-c2ncccn2)n1 [I-132] | 100 | 100 |  | 90 |  | 100 | 90 |  |  |  |  |  | 100 |  | 100 |  | 100 | 100 | 100 |
| C[C@H](NC(=O)c1cc(Br)cc(Br)c1)c1nc(N2CCOCC2)nn1-c1ncccn1 [I-144] |  | 100 |  |  |  | 90 | 90 |  |  |  |  |  |  |  | 100 |  |  |  |  |
| C[C@H](NC(=O)c1cc(C(F)(F)F)cc(C(F)(F)F)c1)c1nc(N2CCOCC2)nn1-c1ncccn1 [I-145, N-[(1S)-1-(5-morpholino-2-pyrimidin-2-yl-1,2,4-triazol-3-yl)ethyl]-3,5-bis(trifluoromethyl)benzamide] | 100 | 100 |  |  |  | 80 | 100 |  |  |  |  |  | 100 |  | 100 |  |  |  |  |
| C[C@H](NC(=O)c1cc(OC(F)(F)F)cc(C2CC2)c1)c1nc(N2CCOCC2)nn1-c1ncccn1 [I-146] | 100 | 90 |  |  |  |  | 100 |  |  |  |  |  | 100 |  | 100 |  |  |  |  |
| C[C@H](NC(=O)c1cc(Br)cc(OC(F)(F)F)c1)c1nc(N2CCOCC2)nn1-c1ncccn1 [I-147] |  | 100 |  |  |  |  | 100 |  |  |  |  |  |  |  | 100 |  |  |  |  |
| C[C@H](NC(=O)c1cc(Cl)cc(C(C)(C)C#N)c1)c1nc(N)nn1-c1ccc(C#N)cn1 [I-155] | 100 | 100 |  | 100 |  | 100 |  |  |  |  |  |  | 100 |  | 100 | 100 | 100 | 100 | 100 |
